Results on 1 compound are retold here after patent US20210267959A1, “METHODS OF TREATING RENAL DISEASE” (The Regents of the University of California, priority 2018, published 2021).

Each structure is given as a SMILES string.

For data set [1], the system named is monoacylglycerol lipase (MGL). The note with it: cited from earlier work.
The subject of data set [2] is mouse model of chronic kidney disease (CKD) via 5/6 nephrectomy. The experiment in a line: JZL184 in mouse 5/6 nephrectomy model of chronic kidney disease. It counts as in vivo, Male C57BL/6J mice. The note with it: CKD mice, JZL184 4 mg/kg, 4 weeks; FIG. 12. The procedure: (§1) We used a well-known experimental tool, JZL184, which inhibits the enzyme responsible for breakdown of 2-AG, monoacylglycerol lipase (MGL), to determine the effect of increased tissue 2-AG levels on markers of renal function in animal models of chronic kidney disease (CKD). JZL184 was administered intraperitoneally in a well-established rat and mouse model of chronic kidney disease (CKD) (FIG. 8).
(§2) Therefore, we induced CKD in animals via 5/6 nephrectomy (surgical removal of one entire kidney in addition to 2/3 of the contralateral kidney which results in significant renal mass reduction and development of kidney failure over 6-10 weeks) in two separate studies (one set in rats and one set in mice).
We performed a similar experiment in mice. Male C57BL/6J mice underwent sham surgery versus 5/6 nephrectomy to induce CKD and two weeks after surgery were randomized to vehicle versus JZL184 therapy (4 mg/kg). Treated animals received JZL184 (4 mg/kg) for an additional 4 weeks (FIG. 11).

For data set [3], the system named is rat model of chronic kidney disease (CKD) via 5/6 nephrectomy. In words: JZL184 in rat 5/6 nephrectomy model of chronic kidney disease. It counts as in vivo, male Sprague-Dawley rats. The conditions noted are these: CKD rats, 4 weeks. The procedure:
as §1, §2
In the rats, male Sprague-Dawley rats underwent 5/6 nephrectomy versus sham surgery and after two weeks were randomized to 4 groups: sham surgery, CKD treated with vehicle, CKD treated with 4 mg/kg JZL184 and CKD treated with 8 mg/kg JZL184 (n=6-8). During and at the end of the study, non-invasive blood pressure measurements were performed using tail-cuff plethysmography. Before sacrifice, a 24-hour urine sample was collected and evaluated for urine protein and creatinine to assess for degree of proteinuria (degree of proteinuria is a marker of glomerular and interstitial kidney damage in advanced CKD). After sacrifice, serum was obtained to assess for renal function. […] This was associated reduced systolic blood pressure and decreased rate of urine protein excretion.

Setting [4] is: JZL184 4 or 8 mg/kg intraperitoneal, FIG. 9.

On to `O=C(Oc1ccc([N+](=O)[O-])cc1)N1CCC(C(O)(c2ccc3c(c2)OCO3)c2ccc3c(c2)OCO3)CC1` [JZL184, 4-nitrophenyl-4-(dibenzo[d][1,3]dioxol-5-yl(hydroxy)methyl)piperidine-1-carboxylate], for which, in data set [1] (4 mg/kg in mice and 4-8 mg/kg in rats, have been shown (prior work)), the “overt symptoms of endocannabinoid activation in the central nervous system” value is given as “without causing overt symptoms”. In addition, the “brain and kidney levels of 2-AG” value in data set [1] (has been shown (prior work)) is recorded as “significantly increase”. Moreover, in data set [2], the blood pressure entry is reported as “significant improvement”, the “serum BUN concentration” value is “reduced” and the urinary protein excretion result is reported as “decreased”. In data set [3] (setting [4]), the “cerebral cortex 2-AG concentration” value is on record as “significant increase” and the “renal 2-AG concentration” value is “significant increase”. Moreover, the “rate of urine protein excretion” value in data set [3] (JZL184 4 or 8 mg/kg, 24-hour urine, FIG. 10) was “decreased”. Besides, the “renal function (serum)” value in data set [3] (JZL184 4 or 8 mg/kg, FIG. 10) is given as “signal toward improved renal function”. Besides, the systolic blood pressure result in data set [3] (JZL184 4 or 8 mg/kg, tail-cuff plethysmography, FIG. 10) is “reduced”.
